Reference: publication PMC6349869, “The palladacycle complex AJ-5 induces apoptotic cell death while reducing autophagic flux in rhabdomyosarcoma cells” (Cell Death Discovery, 2019)

Experiments:
[1] = system: SW1353, SW872, SW982, HT1080 and MG-63 cells; experiment: Clonogenic assay, sarcoma subtypes; assay type: cell-based, human; details: ¼ IC50, 24 h, all sarcoma subtypes
Experimental: Cells were seeded in 6-well plates and treated the following day with IC50, ½ IC50, ¼ IC50 AJ-5 and vehicle. After 24 h, 800–4000 cells were seeded in 35 mm dishes in drug-free medium. Formation of colonies were monitored and after 7–21 days cells were fixed with 3:1 methanol:acetic acid and stained with 0.5% crystal violet (Sigma Aldrich) in 100% methanol. Colonies were imaged and percentage colony area was determined using ImageJ v1.50i[58] and the plugin ColonyArea[59]. Colony area was determined for each drug concentration and expressed as a percentage of vehicletreated control.
Fig. S2 AJ-5 is cytotoxic in a range of sarcoma subtypes. […] Graphs show mean cell viability as a percentage of vehicle control ± SEM for each concentration of AJ-5 determined from three independent experiments performed in quadruplicate. […] (B) Selectivity indices (SIs) were determined for each cell line by dividing the IC50 of each non-malignant cell line (Fig. 1C) including normal fibroblast cell lines (FG0 and DMB) and mesenchymal stem cell line (A10021501) by the IC50 of each sarcoma cell line. […] Colonies were stained with crystal violet and images from three independent repeats were quantified using the ImageJ plugin ColonyArea. […] Data was analysed using GraphPad Prism 6.0 and a parametric unpaired t-test was performed *p<0.05, **p<0.01, ***p<0.001.

[2] = system: phosphorylated RIP3 and MLKL; experiment: Western blot of necroptosis markers (preliminary, data not shown); assay type: cell-based
[3] = system: caspase-3/7, caspase-8, caspase-9, PARP in RH30 and RD cells; experiment: Caspase-Glo assays and western blots of apoptosis markers; assay type: cell-based, human
Experimental: Cells were lysed at 4 °C in whole-cell lysis buffer (0.125 M Tris-HCl pH 6.8, 4% SDS, 0.2% glycerol, 0.1% β-mercaptoethanol and a pinch of bromophenol blue) and boiled for 10 min. Proteins were resolved by SDS-PAGE (6–15% gels) and transferred to Hybond ECL membranes (Amersham, UK). The membranes were incubated with primary antibodies: rabbit polyclonal antibodies to phospho-histone H2A.X (Ser139) (#2577), phospho-chk2 (Thr68) (#221), phospho-p38 MAPK (Thr180/Tyr182) (#9211), cleaved caspase-3 (Asp175) (#9661), PARP (#9542), caspase-9 (#9502), LC3B (#2775), p38 MAPK (#9212), rabbit monoclonal antibody to cleaved caspase-7 (Asp198) (D6H1) (#8438), mouse monoclonal antibodies to phospho-ATM (Ser1981) (D6H9) (#5883), Cyclin B1 (V152) (#4135), Caspase-8 (1C12) (#9746), SQSTM1/p62 (D5L7G) (#88588) from Cell Signaling Technology (Massachusetts, USA); mouse monoclonal antibody to p53 (DO-1) (sc-126), rabbit polyclonal antibodies to p21 (C-19) (sc-397), cyclin A (H-432) (sc-751), cyclin B1 (H-433)(sc-752), PARP-1 (H-250) (sc-7150) from Santa Cruz Biotechnology (Texas, USA); rabbit polyclonal antibody to p38 MAP kinase (M0800) from Sigma Aldrich. After primary antibody incubation, membranes were incubated with goat anti-rabbit or goat anti-mouse HRP-conjugated secondary antibodies (Bio-Rad Laboratories, California, USA). Antibody reactive proteins were visualized by enhanced chemiluminescence using SuperSignal West Pico Chemiluminescent Substrate Kit (Thermo Fisher Scientific) or WesternBright ECL HRP Substrate Kit (Advansta, California, USA). Densitometry readings were obtained using ImageJ v1.50i[58] and protein expression levels were represented as a ratio of protein of interest/p38 loading control normalized to the vehicletreated control sample where appropriate. All blots are representative of at least two independent repeats.
Cells were seeded and treated for 24 h with IC50 AJ-5, vehicle or 0.5 µM (IC50) doxorubicin which was included and as a positive control. […]

HT1080 cells = experiment: MTT cell viability assay, HT1080 fibrosarcoma; assay type: cell-based, human; details: 48 h

CC(C)c1cccc(C(C)C)c1[N+]1=Cc2cccc[c]2[Pd-2]1([Cl])[P+](CC[P+](c1ccccc1)(c1ccccc1)[Pd-2]1([Cl])[c]2ccccc2C=[N+]1c1c(C(C)C)cccc1C(C)C)(c1ccccc1)c1ccccc1 (stereo not shown) [AJ-5]
Ability of sarcoma cells to survive and proliferate (colony area) [1]: significantly reduced
Active (phosphorylated) MLKL [2]: increased levels
Phosphorylated RIP3 [2]: increase
Activation of caspases-8 and -9 compared with IC50 doxorubicin ([3]; RD cells, 24 h, IC50 AJ-5 vs 0.5 µM doxorubicin): more robustly activated
Active (cleaved) caspases-3/7 and cleaved PARP ([3]; RH30 and RD): increased levels
Cleaved caspase-8 and caspase-9 ([3]; RH30 and RD, western blotting and Caspase-Glo): increased levels and activity
IC50 (HT1080 cells): < 300 nM
